Consider 31 molecules from patent publication US20220251095A1, “TRICYCLIC COMPOUND, PREPARATION METHOD THEREFOR AND USE THEREOF” (SHANGHAI JEMINCARE PHARMACEUTICALS CO., LTD., priority 2019, published 2022).

Experiment [1] deals with T1, coagulation factor XIa protease (FXIa) (Homo sapiens, UniProt P03951).
T1 construct: purchased Abcam ab62411
The experiment in a line: Inhibition of coagulation factor XIa (FXIa), chromogenic substrate, absorbance at 405. Type of experiment: biochemical. As to conditions: FXIa 0.05 μg/mL, substrate 2.5 mM, 37° C. 15 minutes. On the procedure:
Coagulation factor XIa protease (FXIa) decomposed the specific substrate to produce yellow p-nitroaniline (pNA), pNA had strong absorption at 405 nm. The inhibitory activity of the compounds on coagulation factor XIa was determined by assaying the absorbance of the compounds at […].
The coagulation factor XIa protease used in the experiment was purchased from Abcam Company, Item No. ab62411; the coagulation factor XIa-specific substrate was purchased from HYPHEN BioMed, Item No. Biophen cs-21 (66); tris-HCl was purchased from Invitrogen, Item No. 15567-027; NaCl was purchased from ABCONE, Item No. S39168; Twain 20 was purchased from Amersco, Item No. 0777-1L.
(§1) The compounds were dissolved in 100% DMSO, 20 mM, and stored at room temperature in a nitrogen cabinet.
a. 20 mM of the tested compound was diluted to 2 mM using 100% DMSO, and the reference compound was diluted to 0.4 mM; the compound was continuously diluted with a 3-fold gradient at 10 concentration points using a Bravo liquid workstation.
b. The ECHO liquid workstation was used to transfer 10 nL of compound to the corresponding 384-well experimental plate with double replicate wells; the final concentrations of compound reactions were 1000, 333.3, 111.1, 37.0, 12.3, 4.1, 1.37, 0.46, 0.15, and 0.05 nM. The final concentrations of reference compounds were 200, 66.7, 22.2, 7.4, 2.47, 0.82, 0.27, 0.09, 0.03, 0.01 nM.
c. 10 nL DMSO and 10 nL 0.4 mM reference compounds were transferred to high signal control pores and low signal control pores respectively.
d. 0.1 μg/mL FXIa enzyme solution was prepared with buffer solution, and 10 μL enzyme solution was added to 384-well experimental plate, 5 mM substrate solution was prepared using buffer solution, and […] substrate solution was added to a 384-well experimental plate. The final concentration of FXIa was 0.05 μg/mL and the final concentration of the substrate was 2.5 mM.
e. The 384-hole experimental plate was centrifuged and incubated at 37° C. for 15 minutes.
f. The absorbance was measured at 405 nm using EnVision.

Another experiment relates to human plasma. The experiment is described as follows: Anticoagulant effect on human blood in vitro (APTT clotting time, CT2.0). The following applies: final concentration of compound corresponding to aPTT of the 2-fold blank control. On the procedure: Activated partial thromboplastin time (APTT) measurement reagent was mixed with plasma and the reaction was carried out continuously resulting in a change in optical density up to the clotting point, and the clotting time (CT) was measured by optical turbidimetry using a semi-automatic coagulation analyzer. The in vitro anticoagulant activity of compounds on human blood was determined by detecting the clotting time of plasma treated with different concentrations of compounds, and the corresponding concentration of compounds prolonging clotting time was calculated.
Human plasma used in the experiment was purchased from HD Biosciences (Shanghai) Co., Ltd.; Activated partial thromboplastin time determination kit was purchased from Taizhou Zhongqin Shidi Biotechnology Co., Ltd., Item No. SS00220005.
as §1
a. The NaCl reagent in the kit was incubated half an hour in advance, and the APTT reagent was balanced to room temperature.
b. The compound was continuously diluted at 14 concentration points using a Bravo liquid workstation with a 2-fold gradient.
c. 0.75 μL of the compound was added to the measuring cup, double-replicate wells; 50 μL of plasma was added and 50 μL of APTT reagent was added, the mixture was mixed well and put into coagulation analyzer for incubation at 37° C. for 3 minutes.
d. APTT assay was started, 50 μL of NaCl was added to start the reaction, and the clotting time was counted.
e. Control clotting time was measured using 100% DMSO instead of the compound, and the final concentration of DMSO was 0.5%.
Data were curve-fitted using Graphpad Prism to calculate CT2.0, the final concentration of compound corresponding to aPTT of the 2-fold blank control was calculated.

T1 sequence (P03951 388-625 limits assumed): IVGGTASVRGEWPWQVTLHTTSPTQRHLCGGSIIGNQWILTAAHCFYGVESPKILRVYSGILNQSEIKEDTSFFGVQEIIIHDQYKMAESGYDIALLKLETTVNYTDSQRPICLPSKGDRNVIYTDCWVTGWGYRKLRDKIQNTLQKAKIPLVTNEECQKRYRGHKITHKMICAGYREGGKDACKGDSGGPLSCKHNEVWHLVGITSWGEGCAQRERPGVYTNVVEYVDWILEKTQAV
T1 sequence (P03951 19-387 partner limits assumed): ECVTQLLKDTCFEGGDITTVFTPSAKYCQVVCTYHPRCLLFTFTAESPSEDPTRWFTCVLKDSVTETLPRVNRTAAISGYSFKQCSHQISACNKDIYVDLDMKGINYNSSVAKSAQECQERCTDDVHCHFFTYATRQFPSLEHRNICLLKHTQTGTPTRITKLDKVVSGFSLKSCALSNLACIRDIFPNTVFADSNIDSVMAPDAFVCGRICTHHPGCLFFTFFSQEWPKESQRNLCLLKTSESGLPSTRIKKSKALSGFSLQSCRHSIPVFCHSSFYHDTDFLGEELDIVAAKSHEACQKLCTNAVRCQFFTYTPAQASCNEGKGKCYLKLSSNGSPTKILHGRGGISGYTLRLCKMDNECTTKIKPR

Regarding `Cn1nc(N)c2ccc(-c3[nH]c([C@@H]4[C@H]5C[C@H]5c5cc(-c6cc(Cl)ccc6-n6cnnn6)cc(=O)n54)nc3F)cc21` [Embodiment 76], half-maximal inhibition in experiment [1] (IC50) was put at 0.76 nM. Further, in the experiment on human plasma, the CT2.0 worked out at 0.43 µM.
The corresponding values for `Nc1n[nH]c2cc(-c3cnc([C@@H]4[C@H]5C[C@H]5c5cc(-c6cc(Cl)ccc6-n6cc(C(F)F)nn6)cc(=O)n54)[nH]3)ccc12` [Embodiment 82] are 4.84 nM and 1.04 µM.
On the same counts, the results for `Cn1nc(N)c2ccc(-c3cnc([C@@H]4[C@H]5C[C@H]5c5cc(-c6cc(Cl)ccc6-n6cnnn6)cc(=O)n54)[nH]3)cc21` [Embodiment 34] are 11.9 nM and 0.58 µM.
On the same counts, the results for `O=C1CCc2cc(-c3[nH]c([C@@H]4[C@H]5C[C@H]5c5cc(-c6cc(Cl)ccc6-n6cnnn6)cc(=O)n54)nc3F)ccc2N1` [Embodiment 17] are 0.83 nM and 0.54 µM.
As to `Nc1ccc(-c2[nH]c([C@@H]3[C@H]4C[C@H]4c4cc(-c5cc(Cl)ccc5-n5cnnn5)cc(=O)n43)nc2F)cc1OC(F)(F)F` [Embodiment 49], in experiment [1], it took 6.4 nM to reach half-maximal inhibition (IC50). In the experiment on human plasma, this molecule showed a CT2.0 of 6.86 µM.
For the molecule `Nc1ccc(-c2[nH]c([C@@H]3[C@H]4C[C@H]4c4cc(-c5cc(Cl)ccc5-n5cnnn5)cc(=O)n43)nc2F)c(F)c1F` [Embodiment 48], the IC50 (in general, the point on the concentration scale where inhibition reaches its midpoint) in experiment [1] stood at 3.93 nM. The same molecule showed a CT2.0 in the experiment with human plasma of 3.65 µM.
`Nc1ccc(-c2cnc([C@@H]3[C@H]4C[C@H]4c4cc(-c5cc(Cl)ccc5-n5cnnn5)cc(=O)n43)[nH]2)c(F)n1` [Embodiment 1]: it took 6.5 nM to reach half-maximal inhibition in experiment [1] (IC50). For the same molecule, the CT2.0 in the experiment on human plasma was 1.72 µM.
`Nc1noc2c(F)c(-c3cnc([C@@H]4[C@H]5C[C@H]5c5cc(-c6cc(Cl)ccc6-n6cc(Cl)nn6)cc(=O)n54)[nH]3)ccc12` [Embodiment 68]: it took 3.54 nM to reach half-maximal inhibition in experiment [1] (IC50). Also, the CT2.0 in the experiment on human plasma turned out to be 0.65 µM.
In experiment [1], `O=C1Nc2ccc(-c3[nH]c([C@@H]4[C@H]5C[C@H]5c5cc(-c6cc(Cl)ccc6-n6cc(Cl)nn6)cc(=O)n54)nc3F)cc2CO1` [Embodiment 64] returned an IC50 of 4.78 nM. Moreover, the CT2.0 with human plasma was determined as 1.11 µM.
The corresponding values for `O=C1CCc2cc(-c3[nH]c([C@@H]4[C@H]5C[C@H]5c5cc(-c6cc(Cl)ccc6-n6cc(Cl)nn6)cc(=O)n54)nc3F)ccc2N1` [Embodiment 31] are 4.63 nM and 2.38 µM.
For `Cn1nc(N)c2ccc(-c3[nH]c([C@@H]4[C@H]5C[C@H]5c5cc(-c6cc(Cl)ccc6-n6cc(Cl)nn6)cc(=O)n54)nc3F)cc21` [Embodiment 75], in experiment [1], the IC50 was found to be 5.27 nM. In the experiment with human plasma, this molecule gave a CT2.0 of 1.42 µM.
The corresponding values for `O=C1CCc2cc(-c3cnc([C@@H]4[C@H]5C[C@H]5c5nc(-c6cc(Cl)ccc6-n6cc(Cl)nn6)cc(=O)n54)[nH]3)ccc2N1` [Embodiment 89] are 12.5 nM and 1.29 µM.
On the same counts, the results for `Nc1ccc(-c2[nH]c([C@@H]3[C@H]4C[C@H]4c4nc(-c5cc(Cl)ccc5-n5cnnn5)cc(=O)n43)nc2F)c(F)n1` [Embodiment 14] are 2.84 nM and 0.55 µM.
Consider `Nc1ccc(-c2[nH]c([C@@H]3[C@H]4C[C@H]4c4cc(-c5cc(Cl)ccc5-n5cnnn5)cc(=O)n43)nc2F)c(F)n1` [Embodiment 2], for which inhibition in experiment [1] was half-maximal at 6.7 nM (IC50). Further, the CT2.0 in the experiment on human plasma was 0.55 µM.
The corresponding values for `Nc1n[nH]c2cc(-c3[nH]c([C@@H]4[C@H]5C[C@H]5c5cc(-c6cc(Cl)ccc6-n6cc(Cl)nn6)cc(=O)n54)nc3F)ccc12` [Embodiment 33] are 0.85 nM and 0.69 µM.
On the same counts, the results for `O=C1CCc2c(ccc(-c3cnc([C@@H]4[C@H]5C[C@H]5c5nc(-c6cc(Cl)ccc6-n6cc(Cl)nn6)cc(=O)n54)[nH]3)c2Cl)N1` [Embodiment 91] are 3.93 nM and 2.27 µM.
On the same counts, the results for `O=C1CCc2cc(-c3cnc([C@@H]4[C@H]5C[C@H]5c5cc(-c6cc(Cl)ccc6-n6cnnn6)cc(=O)n54)[nH]3)ccc2N1` [Embodiment 16] are 4.74 nM and 0.63 µM.
The molecule `Nc1n[nH]c2cc(-c3[nH]c([C@@H]4[C@H]5C[C@H]5c5cc(-c6cc(Cl)ccc6-n6cc(C(F)(F)F)nn6)cc(=O)n54)nc3F)ccc12` [Embodiment 78] had an IC50 in experiment [1] of 1.41 nM. The same molecule yielded a CT2.0 in the experiment with human plasma of 0.86 µM.
On the same counts, the results for `Nc1ccc(-c2[nH]c([C@@H]3[C@H]4C[C@H]4c4cc(-c5cc(Cl)ccc5-n5cnnn5)cc(=O)n43)nc2F)cc1C(F)(F)F` [Embodiment 50] are 7.02 nM and 3.16 µM.
For the molecule `Nc1noc2cc(-c3[nH]c([C@@H]4[C@H]5C[C@H]5c5cc(-c6cc(Cl)ccc6-n6cnnn6)cc(=O)n54)nc3F)ccc12` [Embodiment 29], in experiment [1], the half-inhibitory concentration (IC50) came to 0.5 nM. The molecule further yielded a CT2.0 with human plasma of 0.37 µM.
The molecule `Nc1n[nH]c2c(F)c(-c3cnc([C@@H]4[C@H]5C[C@H]5c5cc(-c6cc(Cl)ccc6-n6cnnn6)cc(=O)n54)[nH]3)ccc12` [Embodiment 86] yielded an IC50 in experiment [1] of 0.31 nM. For the same molecule, the CT2.0 in the experiment with human plasma stood at 0.20 µM.
`CNc1noc2cc(-c3[nH]c([C@@H]4[C@H]5C[C@H]5c5cc(-c6cc(Cl)ccc6-n6cc(Cl)nn6)cc(=O)n54)nc3F)ccc12` [Embodiment 70]: the IC50 in experiment [1] amounted to 2.16 nM. Further, the CT2.0 in the experiment with human plasma was 1.32 µM.
For `Nc1n[nH]c2cc(-c3cnc([C@@H]4[C@H]5C[C@H]5c5cc(-c6cc(Cl)ccc6-n6cnnn6)cc(=O)n54)[nH]3)ccc12` [Embodiment 15], in experiment [1], the IC50 amounted to 0.82 nM. Further, in the experiment with human plasma, the CT2.0 was 0.47 µM.
On the same counts, the results for `Nc1noc2cc(-c3[nH]c([C@@H]4[C@H]5C[C@H]5c5cc(-c6cc(Cl)ccc6-n6cc(Cl)nn6)cc(=O)n54)nc3F)ccc12` [Embodiment 69] are 0.36 nM and 0.86 µM.
The corresponding values for `Nc1ccc(-c2cnc([C@@H]3[C@H]4C[C@H]4c4cc(-c5cc(Cl)ccc5-n5cnnn5)cc(=O)n43)[nH]2)c(F)c1F` [Embodiment 24] are 8.65 nM and 0.90 µM.
The corresponding values for `O=C1COc2cc(-c3cnc([C@@H]4[C@H]5C[C@H]5c5cc(-c6cc(Cl)ccc6-n6cnnn6)cc(=O)n54)[nH]3)ccc2N1` [Embodiment 20] are 6.3 nM and 0.88 µM.
`O=c1cnc2cc(-c3cnc([C@@H]4[C@H]5C[C@H]5c5cc(-c6cc(Cl)ccc6-n6cnnn6)cc(=O)n54)[nH]3)ccc2[nH]1` [Embodiment 55] yielded an IC50 in experiment [1] of 5.18 nM. In the experiment on human plasma, this molecule displayed a CT2.0 of 0.67 µM.
In experiment [1], `Nc1noc2cc(-c3cnc([C@@H]4[C@H]5C[C@H]5c5cc(-c6cc(Cl)ccc6-n6cnnn6)cc(=O)n54)[nH]3)ccc12` [Embodiment 28] showed an IC50 of 0.82 nM. In addition, the CT2.0 in the experiment with human plasma is 0.07 µM.
The molecule `O=C1Nc2ccc(-c3cnc([C@@H]4[C@H]5C[C@H]5c5cc(-c6cc(Cl)ccc6-n6cnnn6)cc(=O)n54)[nH]3)cc2CO1` [Embodiment 57] registered an IC50 in experiment [1] of 8.32 nM. In addition, the CT2.0 with human plasma is 0.54 µM.
On the same counts, the results for `O=C1CCc2cc(-c3[nH]c([C@@H]4[C@H]5C[C@H]5c5cc(-c6cc(Cl)ccc6-n6cc(Cl)nn6)cc(=O)n54)nc3Cl)ccc2N1` [Embodiment 77] are 3.18 nM and 0.82 µM.
On the same counts, the results for `O=C1CCc2cc(-c3[nH]c([C@@H]4[C@H]5C[C@H]5c5nc(-c6cc(Cl)ccc6-n6cc(Cl)nn6)cc(=O)n54)nc3F)ccc2N1` [Embodiment 92] are 4.24 nM and 0.83 µM.
